Measurements from US8912146B2, “Derivatives of APF and methods of use” (University of Maryland, Baltimore, priority 2008, dated 2014).
*1 amine or outer side, *2 acyl side, *3 side chain or, on linkers, in order; H or OH if unused. Where a SMILES comes first, the peptide text is derived from it. [ ]: non-standard residue; d: D form. The star is where a group is joined. ξ: configuration not given here. X1 = CC(=O)NC1C(O[C@@H]2OC(CO)[C@H](O)C(O)C2O)[C@@H](O)C(CO)O[C@@H]1*; X2 = CC(C)(C)OC1C[C@@H](C(=O)[*:2])N([*:1])C1; X4 = CC1(C)OC[C@@H](C(=O)[*:2])N1[*:1]; X3 = O=C([C@@H]1CC(O)CN1[*:1])[*:2]; Thr(3ξ) = CC(O)[C@H](N)C(=O)O; ξY = NC(Cc1ccc(O)cc1)C(=O)O; NMeA = CN[C@@H](C)C(=O)O; ξL = CC(C)CC(N)C(=O)O; ξV = CC(C)C(N)C(=O)O; ξA = CC(N)C(=O)O

Test system: primary normal human bladder epithelial cells
Test: 3H-thymidine incorporation (antiproliferative activity) in primary normal bladder epithelial cells
Type: cell-based
Conditions: for % of activity: relative to 1 (as-APF) run on the same plate, from IC50, inactive = no significant activity at <25 μM
Description: Cell Culture. Cystoscopy was performed under general anesthesia, and 4-mm^2 pieces of transitional epithelium with submucosal bladder tissue were obtained for the growth of primary bladder epithelial cells, as previously described (Keay et al., 1996; 2004). Primary normal bladder epithelial cells were propagated in DMEM-F12 (Media-Tech, Herndon Va.) with 10% heat-inactivated fetal bovine serum (FBS), 1% antibiotic/antimycotic solution, 1% L-glutamine, 0.25 units/mL insulin (all from Sigma, St. Louis, Mo.), and 5 ng/mL hEGF (R&D Systems, Minneapolis, Minn.) at 37° C. in a 5% CO2 atmosphere and characterized by binding of AE-1/AE-3 pancytokeratin antibodies (Signet, Dedham, Mass.).
^3H-Thymidine Incorporation. Cell proliferation was measured by ^3H-thymidine incorporation into explanted normal human bladder epithelial cells, plating 1.5×10^4 cells/well onto a 96 well cell culture plate (VWR 29442-054), in 150 ul/well MEM containing 10% heat inactivated FBS, 1% antibiotic/antimycotic solution, and 1% L-glutamine (all from Sigma), resulting in a doubling time of 48-72 hours, as previously described (Keay et al., 1996; 2004). Each purified lyophilized synthetic APF congener was resuspended in acetonitrile/distilled water (1:1), and applied to the cells in serum-free MEM (containing only L-glutamine and antibiotics/antimycotics); cell controls received acetonitrile/distilled water diluted in serum-free MEM alone. Cells were then incubated at 37° C. in a 5% CO2 atmosphere for 48 hours. The cell contents harvested and methanol-fixed onto glass fiber filter paper, and the amount of radioactivity incorporated determined. Significant inhibition of ^3H-thymidine incorporation was defined as a mean decrease in counts per minute of greater than 2 standard deviations from the mean of control cells for each plate. Inhibition of cell proliferation was determined from a semi-log plot of dose-response for each APF derivative; IC50 was determined as the concentration of each derivative that caused a mean 50% inhibition of thymidine incorporation as compared to the mean of untreated cell controls.
Statistical Analysis. The thymidine incorporation (APF biological activity) assay was performed in triplicate on at least two separate runs, with 1 run simultaneously in triplicate on the same plate. The significance of the difference between mean values for each congener vs. mean values for compound 1 was determined by an analysis of variance.

SMILES	antiproliferative activity compared with as-APF (1), in words	% of activity	activity (as-APF8 analogues Galβ1-3GalNAcα-O-TVPAA-R-R-R, Table 7) [%]
CC(=O)NC1C(O[C@@H]2OC(CO)[C@H](O)C(O)C2O)[C@@H](O)C(CO)O[C@@H]1OC[C@H](N)C(=O)NC(CC(C)C)C(=O)N1CCC[C@H]1C(=O)NC(C)C(=O)N[C@@H](C)C(=O)NC(C(=O)N[C@H](C(=O)NC(C(=O)N[C@@H](C)C(=O)O)C(C)C)C(C)C)C(C)C (stereo partly shown) [Derivative 2] (H-S(X1)[ξL]P[ξA]A[ξV]V[ξV]A-OH)	two orders of magnitude loss of potency	1%	
CC(=O)NC1C(O[C@@H]2OC(CO)[C@H](O)C(O)C2O)[C@@H](O)C(CO)O[C@@H]1OC[C@H](N)C(=O)NC(C(=O)N1CCC[C@H]1C(=O)NC(C)C(=O)N[C@@H](C)C(=O)NC(C(=O)N[C@H](C(=O)NC(C(=O)N[C@@H](C)C(=O)O)C(C)C)C(C)C)C(C)C)C(C)C (stereo partly shown) [Derivative 3] (H-S(X1)[ξV]P[ξA]A[ξV]V[ξV]A-OH)	4 orders of magnitude	0.01%	
CC(=O)NC1C(O[C@@H]2OC(CO)[C@H](O)C(O)C2O)[C@@H](O)C(CO)O[C@@H]1OC(C)[C@H](N)C(=O)NC(CC(C)C)C(=O)N1CCC[C@H]1C(=O)NC(C)C(=O)N[C@@H](C)C(=O)NC(C(=O)N[C@H](C(=O)NC(C(=O)N[C@@H](C)C(=O)O)C(C)C)C(C)C)C(C)C (stereo partly shown) [Derivative 4] (H-[Thr(3ξ)](X1)[ξL]P[ξA]A[ξV]V[ξV]A-OH)	inactivation	inactive	
CC(=O)NC1C(O[C@@H]2OC(CO)[C@H](O)C(O)C2O)[C@@H](O)C(CO)O[C@@H]1OC(C)[C@H](NC(=O)C(N)Cc1ccc(O)cc1)C(=O)NC(CC(C)C)C(=O)N1CCC[C@H]1C(=O)NC(C)C(=O)N[C@@H](C)C(=O)NC(C(=O)N[C@H](C(=O)NC(C(=O)N[C@@H](C)C(=O)O)C(C)C)C(C)C)C(C)C (stereo partly shown) [Derivative 6] (H-[ξY][Thr(3ξ)](X1)[ξL]P[ξA]A[ξV]V[ξV]A-OH)	approximately 2 orders of magnitude loss of potency	1%	
CC(=O)NC1C(O[C@@H]2OC(CO)[C@H](O)C(O)C2O)[C@@H](O)C(CO)O[C@@H]1OC(C)[C@H](N)C(=O)NC(Cc1ccc(O)cc1)C(=O)N1CCC[C@H]1C(=O)NC(C)C(=O)N[C@@H](C)C(=O)NC(C(=O)N[C@H](C(=O)NC(C(=O)N[C@@H](C)C(=O)O)C(C)C)C(C)C)C(C)C (stereo partly shown) [Derivative 7] (H-[Thr(3ξ)](X1)[ξY]P[ξA]A[ξV]V[ξV]A-OH)	complete inactivation	inactive	
CC(=O)NC1C(O[C@@H]2OC(CO)[C@H](O)C(O)C2O)[C@@H](O)C(CO)O[C@@H]1OC(C)[C@H](N)C(=O)NC(C(=O)N1[C@H](C(=O)NC(C)C(=O)N[C@@H](C)C(=O)NC(C(=O)N[C@H](C(=O)NC(C(=O)N[C@@H](C)C(=O)O)C(C)C)C(C)C)C(C)C)COC1(C)C)C(C)C (stereo partly shown) [Derivative 9] (H-[Thr(3ξ)](X1)[ξV][X4][ξA]A[ξV]V[ξV]A-OH)	completely abolished activity	inactive	
CC(=O)NC1C(O[C@@H]2OC(CO)[C@H](O)C(O)C2O)[C@@H](O)C(CO)O[C@@H]1OC(C)[C@H](N)C(=O)NC(C(=O)N[C@@H](C)C(=O)NC(C)C(=O)N[C@@H](C)C(=O)NC(C(=O)N[C@H](C(=O)NC(C(=O)N[C@@H](C)C(=O)O)C(C)C)C(C)C)C(C)C)C(C)C (stereo partly shown) [Derivative 11] (H-[Thr(3ξ)](X1)[ξV]A[ξA]A[ξV]V[ξV]A-OH)	2-3 orders of magnitude decrease	0.3%	
CC(=O)NC1C(O[C@@H]2OC(CO)[C@H](O)C(O)C2O)[C@@H](O)C(CO)O[C@@H]1OC(C)[C@H](N)C(=O)NC(C(=O)N1CC(O)C[C@H]1C(=O)NC(C)C(=O)N[C@@H](C)C(=O)NC(C(=O)N[C@H](C(=O)NC(C(=O)N[C@@H](C)C(=O)O)C(C)C)C(C)C)C(C)C)C(C)C (stereo partly shown) [Derivative 12] (H-[Thr(3ξ)](X1)[ξV][X3][ξA]A[ξV]V[ξV]A-OH)	2-3 orders of magnitude decrease	0.3%	
CC(=O)NC1C(O[C@@H]2OC(CO)[C@H](O)C(O)C2O)[C@@H](O)C(CO)O[C@@H]1OC(C)[C@H](N)C(=O)NC(C(=O)N1CC(OC(C)(C)C)C[C@H]1C(=O)NC(C)C(=O)N[C@@H](C)C(=O)NC(C(=O)N[C@H](C(=O)NC(C(=O)N[C@@H](C)C(=O)O)C(C)C)C(C)C)C(C)C)C(C)C (stereo partly shown) [Derivative 13] (H-[Thr(3ξ)](X1)[ξV][X2][ξA]A[ξV]V[ξV]A-OH)	2-3 orders of magnitude decrease	0.2%	
CC(=O)NC1C(O[C@@H]2OC(CO)[C@H](O)C(O)C2O)[C@@H](O)C(CO)O[C@@H]1OC(C)[C@H](N)C(=O)NC(C(=O)N(C)[C@@H](C)C(=O)NC(C)C(=O)N[C@@H](C)C(=O)NC(C(=O)N[C@H](C(=O)NC(C(=O)N[C@@H](C)C(=O)O)C(C)C)C(C)C)C(C)C)C(C)C (stereo partly shown) [Derivative 14] (H-[Thr(3ξ)](X1)[ξV][NMeA][ξA]A[ξV]V[ξV]A-OH)	4 orders of magnitude decrease	0.05%	
CC(=O)NC1C(O[C@@H]2OC(CO)[C@H](O)C(O)C2O)[C@@H](O)C(CO)O[C@@H]1OC(C)[C@H](N)C(=O)NC(C(=O)N1CCC[C@H]1C(=O)NCCCCCCCCCCCC(=O)O)C(C)C (stereo partly shown) [Derivative 16]	completely inactive	inactive	
CC(=O)NC1C(O[C@@H]2OC(CO)[C@H](O)C(O)C2O)[C@@H](O)C(CO)O[C@@H]1OC(C)[C@H](N)C(=O)NC(C(=O)N1CCC[C@H]1C(=O)NC(C)C(=O)N[C@@H](C)C(=O)O)C(C)C (stereo partly shown) [Derivative 17] (H-[Thr(3ξ)](X1)[ξV]P[ξA]A-OH)	completely inactive	inactive	
CC(=O)NC1C(O[C@@H]2OC(CO)[C@H](O)C(O)C2O)[C@@H](O)C(CO)O[C@@H]1OC(C)[C@H](N)C(=O)NC(C(=O)N1CCC[C@H]1C(=O)NC(C)C(=O)N[C@@H](C)C(=O)NC(C(=O)N[C@H](C(=O)NC(C(=O)O)C(C)C)C(C)C)C(C)C)C(C)C (stereo partly shown) [Derivative 18, Galβ1-3GalNAcα-O-TVPAAVVV] (H-[Thr(3ξ)](X1)[ξV]P[ξA]A[ξV]V[ξV]-OH)	full activity	100%	100
CC(=O)NC1C(O[C@@H]2OC(CO)[C@H](O)C(O)C2O)[C@@H](O)C(CO)O[C@@H]1OC(C)[C@H](N)C(=O)NC(C(=O)N1CCC[C@H]1C(=O)NC(C)C(=O)N[C@@H](C)C(=O)NC(C(=O)N[C@H](C(=O)O)C(C)C)C(C)C)C(C)C (stereo partly shown) [Derivative 19, Galβ1-3GalNAcα-O-TVPAAVV] (H-[Thr(3ξ)](X1)[ξV]P[ξA]A[ξV]V-OH)	completely inactive	inactive	
CC(=O)NC1C(O[C@@H]2OC(CO)[C@H](O)C(O)C2O)[C@@H](O)C(CO)O[C@@H]1OC(C)[C@H](N)C(=O)NC(C(=O)N1CCC[C@H]1C(=O)NC(C)C(=O)N[C@@H](C)C(=O)NC(C(=O)N[C@H](C(=O)NC(C)C(=O)N[C@H](C(=O)O)C(C)C)C(C)C)C(C)C)C(C)C (stereo partly shown) [Derivative 20] (H-[Thr(3ξ)](X1)[ξV]P[ξA]A[ξV]V[ξA]V-OH)	loss of most or all biological activity	inactive	
